Molecular target: rat PGT (Rattus norvegicus (Rat), UniProt Q00910)
Assay: [3H]PGE2 uptake inhibition in MDCK cells stably transfected with rat PGT (percent inhibition and IC50)
Assay type: cell-based
Details: for Inh (% of Ctl) 0.1 μM: 0.1 μM compound; for Inh (% of Ctl) 0.1 μM / Inh (% of Ctl) 0.5 μM / Inh (% of Ctl) 1 μM / Inh (% of Ctl) 10 μM / Inh (% of Ctl) 2.5 μM / Inh (% of Ctl) 5 μM: inhibition of [3H]PGE2 uptake; for Inh (% of Ctl) 0.5 μM: 0.5 μM compound; for Inh (% of Ctl) 1 μM: 1 μM compound; for IC50: [3H]PGE2 uptake, MDCK cells stably transfected with rat PGT; for Inh (% of Ctl) 10 μM: 10 μM compound; for Inh (% of Ctl) 2.5 μM: 2.5 μM compound; for Inh (% of Ctl) 5 μM: 5 μM compound
Outline: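 Rat PGT-transfected MDCK cells, on day 4 after seeding, took up [3H]PGE2 in Waymouth buffer at room temperature, with compound (EtOH stock diluted in buffer) added immediately before tracer. Intracellular radioactivity counted after lysis; percent inhibition versus vehicle, IC50 by fitting y=m1−m1*(m0/(m2+m0)).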

COc1ccc(C(=O)NCCOCCNc2nc(Nc3ccc(O)cc3)nc(Nc3ccc(C(=O)NCc4ccccc4)cc3)n2)cc1 [compound 137]
Inh (% of Ctl) 0.1 μM: 42.0 % of Ctl
Inh (% of Ctl) 0.5 μM: 64.9 % of Ctl
Inh (% of Ctl) 1 μM: 75.6 % of Ctl
IC50: 0.0367 µM

COc1ccc(C(=O)NCCOCCOCCNc2nc(Nc3ccccc3)nc(Nc3ccc(O)cc3)n2)cc1 [compound 32]
Inh (% of Ctl) 1 μM: 29.0 % of Ctl
Inh (% of Ctl) 10 μM: 71.0 % of Ctl

O=C(NCCOCCOCCNc1nc(Nc2ccccc2)nc(Nc2ccc(O)cc2)n1)c1ccc(-c2ccccc2)cc1 [compound 40]
Inh (% of Ctl) 1 μM: 16.3 % of Ctl
Inh (% of Ctl) 10 μM: 46.9 % of Ctl

O=C(NCCOCCOCCNc1nc(Nc2ccc(O)cc2)nc(Nc2ccc(C(=O)NCc3ccccc3F)cc2)n1)c1ccccc1 [compound 110]
Inh (% of Ctl) 0.1 μM: 69.6 % of Ctl
Inh (% of Ctl) 0.5 μM: 60.6 % of Ctl
Inh (% of Ctl) 2.5 μM: 78.3 % of Ctl
Inh (% of Ctl) 5 μM: 93.6 % of Ctl
IC50: 0.0313 µM

O=C(NCCOCCOCCNc1nc(Nc2ccc(O)cc2)nc(Nc2ccc(CO)cc2)n1)c1ccccc1 [compound 26]
Inh (% of Ctl) 0.5 μM: 2.6 % of Ctl
Inh (% of Ctl) 5 μM: 35.2 % of Ctl

O=C(NCCOCCOCCNc1nc(Nc2ccc(O)cc2)nc(Nc2ccc(O)cc2)n1)c1ccccc1 [compound 28]
Inh (% of Ctl) 0.5 μM: 2.4 % of Ctl
Inh (% of Ctl) 5 μM: 56.5 % of Ctl

O=C(NCCOCCOCCNc1nc(Nc2ccccc2)nc(Nc2ccc3[nH]nnc3c2)n1)c1ccccc1 [compound 95]
Inh (% of Ctl) 1 μM: 1.9 % of Ctl
Inh (% of Ctl) 5 μM: 23.4 % of Ctl
Inh (% of Ctl) 10 μM: 50.4 % of Ctl

O=C(NCCOCCOCCNc1nc(Nc2ccccc2)nc(Nc2ccc(O)c(Cl)c2)n1)c1ccccc1 [compound 56]
Inh (% of Ctl) 1 μM: 38.0 % of Ctl
Inh (% of Ctl) 10 μM: 80.5 % of Ctl

O=C(NCCCCCNc1nc(Nc2ccccc2)nc(Nc2ccc(O)cc2)n1)c1ccccc1 [compound 85]
Inh (% of Ctl) 1 μM: 7.6 % of Ctl
Inh (% of Ctl) 5 μM: 12.2 % of Ctl
Inh (% of Ctl) 10 μM: 49.6 % of Ctl

O=C(NCCOCCOCCNc1nc(Nc2ccc(O)cc2)nc(Nc2ccc(C(=O)NCc3ccccc3)cc2)n1)c1ccccc1 [compound 83]
Inh (% of Ctl) 0.5 μM: 4.1 % of Ctl
Inh (% of Ctl) 2.5 μM: 10.4 % of Ctl
Inh (% of Ctl) 5 μM: 42.0 % of Ctl
IC50: 0.609 µM

O=C(NCCOCCOCCNc1nc(NCCOCCOCCNC(=O)c2ccccc2)nc(Nc2ccc(O)cc2)n1)c1ccccc1 [compound 151]
Inh (% of Ctl) 0.5 μM: 0.7 % of Ctl
Inh (% of Ctl) 1 μM: 8.4 % of Ctl

O=C(NCCOCCOCCNc1nc(Nc2ccc(O)cc2)nc(Nc2ccc(C(=O)NCc3ccc(Cl)c(Cl)c3)cc2)n1)c1ccccc1 [compound 104]
Inh (% of Ctl) 0.1 μM: 46.6 % of Ctl
Inh (% of Ctl) 0.5 μM: 61.6 % of Ctl
Inh (% of Ctl) 2.5 μM: 87.8 % of Ctl
Inh (% of Ctl) 5 μM: 91.6 % of Ctl

CN(C)C(=O)c1ccc(Nc2nc(NCCOCCOCCNC(=O)c3ccccc3)nc(Nc3ccc(O)cc3)n2)cc1 [compound 15]
Inh (% of Ctl) 0.5 μM: 15.0 % of Ctl
Inh (% of Ctl) 5 μM: 16.6 % of Ctl

O=C(NCCOCCOCCNc1nc(Nc2ccccc2)nc(Nc2ccc(O)cc2)n1)c1ccc(Br)cc1 [compound 31]
Inh (% of Ctl) 1 μM: 12.2 % of Ctl
Inh (% of Ctl) 10 μM: 69.2 % of Ctl

O=C(NCCOCCOCCNc1nc(Nc2ccc(O)cc2)nc(Nc2ccc(C(=O)NCc3ccncc3)cc2)n1)c1ccccc1 [compound 71]
Inh (% of Ctl) 0.5 μM: 16.7 % of Ctl
Inh (% of Ctl) 5 μM: 78.4 % of Ctl

O=C(NCCOCCOCCNc1nc(Nc2ccc(O)cc2)nc(Nc2cccc(C(=O)NCc3ccccc3)c2)n1)c1ccccc1 [compound 78]
Inh (% of Ctl) 0.5 μM: 15.5 % of Ctl
Inh (% of Ctl) 2.5 μM: 24.5 % of Ctl
Inh (% of Ctl) 5 μM: 83.2 % of Ctl

COc1ccc(Nc2nc(NCCOCCOCCNC(=O)c3ccccc3)nc(Nc3ccc(O)cc3)n2)cc1 [compound 23]
Inh (% of Ctl) 0.5 μM: 14.4 % of Ctl
Inh (% of Ctl) 5 μM: 38.4 % of Ctl
